These results are taken from patent publication US20230257396A1, “MACROCYCLES AND THEIR USE” (BLOSSOMHILL THERAPEUTICS, INC., priority 2020, published 2023).

Assay in all cases: KINOMEscan kinase binding assay (Eurofins/DiscoveRx), % Ctrl
For test [1], the target named is T1, kinases (Homo sapiens, UniProt P00519, F317I).
T1 construct: purchased Eurofins/DiscoveRx; host or cells: E. coli BL21-derived host (T7 phage display) for most kinases; HEK-293 for the rest
In short, it runs like this: (§1)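 Read-out is qPCR of kinase eluted from ligand-coated streptavidin beads after 1 h room-temperature competition with test compound. Values are % Ctrl at the tested concentration, lower meaning tighter binding.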

Test [2] addresses T2, kinases (Homo sapiens, UniProt P00533).
T2 construct: purchased Eurofins/DiscoveRx; host or cells: E. coli BL21-derived host (T7 phage display) for most kinases; HEK-293 for the rest
In short, it runs like this:
as §1

The target in test [3] is T3, kinases (Homo sapiens, UniProt P00533, L861Q).
T3 construct: purchased Eurofins/DiscoveRx; host or cells: E. coli BL21-derived host (T7 phage display) for most kinases; HEK-293 for the rest
In short, it runs like this: as §1

Test [4] has as its target T4, kinases (Homo sapiens, UniProt P07949, V804L).
T4 construct: purchased Eurofins/DiscoveRx; host or cells: E. coli BL21-derived host (T7 phage display) for most kinases; HEK-293 for the rest
In short, it runs like this: as §1

The target in test [5] is T5, kinases (Homo sapiens, UniProt P10721).
T5 construct: purchased Eurofins/DiscoveRx; host or cells: E. coli BL21-derived host (T7 phage display) for most kinases; HEK-293 for the rest
T5 sequence (P10721 26-976): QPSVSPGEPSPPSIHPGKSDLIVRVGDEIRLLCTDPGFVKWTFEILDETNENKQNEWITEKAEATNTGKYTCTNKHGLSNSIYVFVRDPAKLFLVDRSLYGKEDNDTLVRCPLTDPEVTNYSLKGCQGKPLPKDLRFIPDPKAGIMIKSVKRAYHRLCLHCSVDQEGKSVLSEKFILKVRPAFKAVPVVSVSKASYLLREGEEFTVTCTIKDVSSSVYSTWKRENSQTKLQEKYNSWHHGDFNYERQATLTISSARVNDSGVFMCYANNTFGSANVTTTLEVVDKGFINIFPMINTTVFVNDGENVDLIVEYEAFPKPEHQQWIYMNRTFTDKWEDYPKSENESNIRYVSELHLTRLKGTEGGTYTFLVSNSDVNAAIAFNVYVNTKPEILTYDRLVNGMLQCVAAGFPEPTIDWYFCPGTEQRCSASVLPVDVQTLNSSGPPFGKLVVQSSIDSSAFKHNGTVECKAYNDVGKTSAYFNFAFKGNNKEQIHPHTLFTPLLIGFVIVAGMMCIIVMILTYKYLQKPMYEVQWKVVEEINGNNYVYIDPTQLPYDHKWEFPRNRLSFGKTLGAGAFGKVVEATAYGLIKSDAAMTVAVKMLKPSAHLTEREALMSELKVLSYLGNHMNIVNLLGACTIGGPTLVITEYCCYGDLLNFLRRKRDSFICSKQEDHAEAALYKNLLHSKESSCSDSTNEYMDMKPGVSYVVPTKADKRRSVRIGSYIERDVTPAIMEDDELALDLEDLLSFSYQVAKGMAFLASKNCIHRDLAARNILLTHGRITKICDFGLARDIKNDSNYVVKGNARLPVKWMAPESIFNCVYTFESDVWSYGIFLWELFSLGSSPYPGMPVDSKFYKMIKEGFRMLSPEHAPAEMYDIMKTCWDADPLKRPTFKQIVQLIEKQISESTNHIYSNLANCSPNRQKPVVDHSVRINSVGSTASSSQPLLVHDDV
In short, it runs like this:
as §1

Test [6] concerns the target T6, kinases (Homo sapiens, UniProt P10721, A829P).
T6 construct: purchased Eurofins/DiscoveRx; host or cells: E. coli BL21-derived host (T7 phage display) for most kinases; HEK-293 for the rest
In short, it runs like this:
as §1

In test [7] the target is T7, kinases (Homo sapiens, UniProt P10721, D816V).
T7 construct: purchased Eurofins/DiscoveRx; host or cells: E. coli BL21-derived host (T7 phage display) for most kinases; HEK-293 for the rest
T7 sequence (P10721 26-976 D816V): as the sequence (P10721 26-976) above, with D791V counted along it
In a few lines: as §1

Test [8] deals with T8, kinases (Homo sapiens, UniProt P10721, V559D).
T8 construct: purchased Eurofins/DiscoveRx; host or cells: E. coli BL21-derived host (T7 phage display) for most kinases; HEK-293 for the rest
T8 sequence (P10721 26-976 V559D): as the sequence (P10721 26-976) above, with V534D counted along it
In a few lines: as §1

Test [9] has as its target T9, kinases (Homo sapiens, UniProt P10721, V559D/V654A).
T9 construct: purchased Eurofins/DiscoveRx; host or cells: E. coli BL21-derived host (T7 phage display) for most kinases; HEK-293 for the rest
In short, it runs like this: as §1

The target in test [10] is T10, kinases (Homo sapiens, UniProt P36888, N841I).
T10 construct: purchased Eurofins/DiscoveRx; host or cells: E. coli BL21-derived host (T7 phage display) for most kinases; HEK-293 for the rest
T10 sequence (P36888 27-993 N841I): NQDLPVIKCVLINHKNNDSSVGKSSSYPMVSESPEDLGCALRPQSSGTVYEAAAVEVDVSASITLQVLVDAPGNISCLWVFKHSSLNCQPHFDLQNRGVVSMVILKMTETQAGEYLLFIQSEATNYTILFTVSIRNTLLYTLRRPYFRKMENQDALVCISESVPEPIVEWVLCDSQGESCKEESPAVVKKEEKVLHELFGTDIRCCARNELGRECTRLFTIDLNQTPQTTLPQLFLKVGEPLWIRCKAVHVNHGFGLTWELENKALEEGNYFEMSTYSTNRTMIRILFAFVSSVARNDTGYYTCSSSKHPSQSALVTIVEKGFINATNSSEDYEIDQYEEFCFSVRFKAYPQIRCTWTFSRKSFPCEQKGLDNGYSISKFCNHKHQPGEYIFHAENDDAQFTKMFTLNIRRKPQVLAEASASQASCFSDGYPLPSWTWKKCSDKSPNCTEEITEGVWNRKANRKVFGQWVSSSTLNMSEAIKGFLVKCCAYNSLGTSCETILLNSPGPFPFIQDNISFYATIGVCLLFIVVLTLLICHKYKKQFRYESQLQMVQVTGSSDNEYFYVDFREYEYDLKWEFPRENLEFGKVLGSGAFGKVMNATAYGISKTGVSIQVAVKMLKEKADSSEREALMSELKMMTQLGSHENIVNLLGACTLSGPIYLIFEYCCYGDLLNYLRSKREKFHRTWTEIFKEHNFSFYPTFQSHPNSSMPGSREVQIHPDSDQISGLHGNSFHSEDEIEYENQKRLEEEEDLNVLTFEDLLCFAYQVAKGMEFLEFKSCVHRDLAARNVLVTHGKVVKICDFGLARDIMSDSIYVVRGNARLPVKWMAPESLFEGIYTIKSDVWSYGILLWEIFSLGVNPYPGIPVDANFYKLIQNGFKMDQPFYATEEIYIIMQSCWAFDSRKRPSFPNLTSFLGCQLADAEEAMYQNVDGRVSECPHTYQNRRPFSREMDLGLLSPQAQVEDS
In short, it runs like this:
as §1

Test [11] addresses T11, kinases (Homo sapiens, UniProt P42684).
T11 construct: purchased Eurofins/DiscoveRx; host or cells: E. coli BL21-derived host (T7 phage display) for most kinases; HEK-293 for the rest
In short, it runs like this:
as §1

Setting [12] is: target ABL1(F317I)-nonphosphorylated; 1 μM.
[13] abbreviates: target ABL1(F317I)-phosphorylated; 1 μM.

T1 sequence (P00519 whole entry F317I): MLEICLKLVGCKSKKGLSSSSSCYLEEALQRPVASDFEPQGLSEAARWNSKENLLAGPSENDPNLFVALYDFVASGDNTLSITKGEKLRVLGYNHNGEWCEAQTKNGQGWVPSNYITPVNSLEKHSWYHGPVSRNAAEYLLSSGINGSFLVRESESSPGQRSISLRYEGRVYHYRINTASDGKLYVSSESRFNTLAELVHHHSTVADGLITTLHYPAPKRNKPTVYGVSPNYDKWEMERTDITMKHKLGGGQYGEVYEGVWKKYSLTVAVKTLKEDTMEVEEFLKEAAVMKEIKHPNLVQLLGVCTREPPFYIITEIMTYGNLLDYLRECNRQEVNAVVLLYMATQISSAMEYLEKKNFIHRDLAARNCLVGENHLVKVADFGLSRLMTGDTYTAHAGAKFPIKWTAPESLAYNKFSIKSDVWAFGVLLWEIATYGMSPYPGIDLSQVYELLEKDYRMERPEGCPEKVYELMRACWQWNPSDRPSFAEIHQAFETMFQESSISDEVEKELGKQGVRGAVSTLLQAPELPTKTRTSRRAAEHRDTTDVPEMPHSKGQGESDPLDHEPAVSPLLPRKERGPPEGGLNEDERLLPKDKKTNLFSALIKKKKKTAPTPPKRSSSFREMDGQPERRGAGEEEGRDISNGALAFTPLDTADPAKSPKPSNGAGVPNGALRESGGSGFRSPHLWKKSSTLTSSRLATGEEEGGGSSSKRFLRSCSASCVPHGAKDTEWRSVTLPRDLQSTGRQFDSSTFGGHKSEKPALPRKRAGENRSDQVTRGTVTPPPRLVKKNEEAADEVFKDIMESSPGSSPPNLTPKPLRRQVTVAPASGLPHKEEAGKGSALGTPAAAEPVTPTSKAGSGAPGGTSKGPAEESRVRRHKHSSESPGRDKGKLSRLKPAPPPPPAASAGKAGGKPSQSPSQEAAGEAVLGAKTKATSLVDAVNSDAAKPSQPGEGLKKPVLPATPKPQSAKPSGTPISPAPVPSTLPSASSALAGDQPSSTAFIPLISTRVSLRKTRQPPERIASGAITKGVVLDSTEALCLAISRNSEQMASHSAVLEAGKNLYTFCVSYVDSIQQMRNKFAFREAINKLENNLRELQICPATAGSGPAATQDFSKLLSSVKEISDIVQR
T6 sequence (P10721 26-976 A829P): as the sequence (P10721 26-976) above, with A804P counted along it
T11 sequence (P42684 whole entry): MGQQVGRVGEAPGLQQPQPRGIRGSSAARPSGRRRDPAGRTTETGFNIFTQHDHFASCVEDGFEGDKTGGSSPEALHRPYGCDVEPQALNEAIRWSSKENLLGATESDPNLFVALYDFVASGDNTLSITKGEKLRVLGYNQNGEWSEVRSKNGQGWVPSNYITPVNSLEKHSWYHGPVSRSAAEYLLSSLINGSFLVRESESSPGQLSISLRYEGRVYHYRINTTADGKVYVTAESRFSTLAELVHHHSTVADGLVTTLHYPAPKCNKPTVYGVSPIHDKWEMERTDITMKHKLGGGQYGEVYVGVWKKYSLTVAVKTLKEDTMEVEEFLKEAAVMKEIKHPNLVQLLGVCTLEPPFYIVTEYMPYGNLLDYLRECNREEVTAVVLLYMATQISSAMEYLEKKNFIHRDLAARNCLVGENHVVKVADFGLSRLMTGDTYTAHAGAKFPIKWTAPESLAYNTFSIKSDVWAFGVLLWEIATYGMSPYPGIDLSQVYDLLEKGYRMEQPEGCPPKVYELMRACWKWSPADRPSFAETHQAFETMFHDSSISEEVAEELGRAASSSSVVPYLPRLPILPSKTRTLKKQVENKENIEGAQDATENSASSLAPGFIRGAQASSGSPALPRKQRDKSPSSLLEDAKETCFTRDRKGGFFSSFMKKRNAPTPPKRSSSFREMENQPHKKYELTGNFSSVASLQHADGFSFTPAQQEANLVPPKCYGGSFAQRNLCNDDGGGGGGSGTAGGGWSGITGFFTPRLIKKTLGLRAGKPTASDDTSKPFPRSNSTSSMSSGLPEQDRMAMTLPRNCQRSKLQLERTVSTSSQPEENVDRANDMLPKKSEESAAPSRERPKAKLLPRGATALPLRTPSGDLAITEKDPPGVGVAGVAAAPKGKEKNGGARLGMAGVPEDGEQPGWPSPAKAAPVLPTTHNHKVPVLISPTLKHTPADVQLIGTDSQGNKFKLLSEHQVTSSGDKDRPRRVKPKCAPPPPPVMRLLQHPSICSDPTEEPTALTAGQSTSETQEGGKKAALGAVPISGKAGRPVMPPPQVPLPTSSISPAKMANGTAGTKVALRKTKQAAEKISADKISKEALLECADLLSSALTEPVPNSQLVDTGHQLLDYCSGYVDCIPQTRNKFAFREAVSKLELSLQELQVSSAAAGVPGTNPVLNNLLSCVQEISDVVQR
T4 sequence (P07949 29-1114 V804L): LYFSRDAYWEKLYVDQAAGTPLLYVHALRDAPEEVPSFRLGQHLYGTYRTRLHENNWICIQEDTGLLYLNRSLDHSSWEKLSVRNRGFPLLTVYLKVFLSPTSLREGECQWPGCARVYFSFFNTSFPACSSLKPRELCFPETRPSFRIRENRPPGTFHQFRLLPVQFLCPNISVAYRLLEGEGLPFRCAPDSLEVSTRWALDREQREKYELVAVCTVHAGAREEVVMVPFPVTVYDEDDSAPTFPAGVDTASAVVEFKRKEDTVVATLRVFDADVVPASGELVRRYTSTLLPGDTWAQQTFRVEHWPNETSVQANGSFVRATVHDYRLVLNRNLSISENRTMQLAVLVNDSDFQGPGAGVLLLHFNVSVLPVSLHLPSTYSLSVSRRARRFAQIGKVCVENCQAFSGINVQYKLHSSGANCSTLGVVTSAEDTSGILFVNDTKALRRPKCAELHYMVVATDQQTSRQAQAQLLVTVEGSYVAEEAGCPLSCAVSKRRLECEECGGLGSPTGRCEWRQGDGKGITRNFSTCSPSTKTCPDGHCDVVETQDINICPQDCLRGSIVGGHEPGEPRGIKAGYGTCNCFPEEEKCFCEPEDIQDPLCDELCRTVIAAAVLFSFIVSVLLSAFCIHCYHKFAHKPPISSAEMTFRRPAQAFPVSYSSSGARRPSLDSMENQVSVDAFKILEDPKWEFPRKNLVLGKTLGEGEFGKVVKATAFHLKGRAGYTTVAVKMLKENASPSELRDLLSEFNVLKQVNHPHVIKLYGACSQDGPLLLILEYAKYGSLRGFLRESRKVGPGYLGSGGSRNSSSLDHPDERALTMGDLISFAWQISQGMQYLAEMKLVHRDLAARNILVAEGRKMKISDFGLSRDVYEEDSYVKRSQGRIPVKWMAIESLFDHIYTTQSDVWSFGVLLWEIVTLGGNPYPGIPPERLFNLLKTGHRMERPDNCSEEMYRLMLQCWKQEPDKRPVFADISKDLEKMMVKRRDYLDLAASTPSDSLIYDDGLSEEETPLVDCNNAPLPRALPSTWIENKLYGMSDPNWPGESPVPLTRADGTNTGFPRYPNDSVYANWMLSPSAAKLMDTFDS
T9 sequence (P10721 26-976 V559D/V654A): as the sequence (P10721 26-976) above, with V534D, V629A counted along it

In the case of `CN1CCSCCOc2cc3c(cc2Cl)NC(=O)/C3=C\c2[nH]ccc2C1=O` [Ex. 153], the “% Ctrl, ABL1(F317I)-nonphosphorylated” value at kinases [1] (setting [12]) was found to be 20 % Ctrl. The “% Ctrl, ABL1(F317I)-phosphorylated” value on kinases [1] (setting [13]) is listed as 37 % Ctrl. Moreover, the “% Ctrl, EGFR” value at kinases [2] (target EGFR; 1 μM) is given as 61 % Ctrl. Moreover, the “% Ctrl, EGFR(L861Q)” value on kinases [3] (target EGFR(L861Q); 1 μM) came to 43 % Ctrl. Further, the “% Ctrl, RET(V804L)” value on kinases [4] (target RET(V804L); 1 μM) came to 6.1 % Ctrl. Further, the “% Ctrl, KIT-autoinhibited” value at kinases [5] (target KIT-autoinhibited; 1 μM) was 14 % Ctrl. Moreover, the “% Ctrl, KIT” value on kinases [5] (target KIT; 1 μM) is 0.8 % Ctrl. Further, the “% Ctrl, KIT(A829P)” value at kinases [6] (target KIT(A829P); 1 μM) is listed as 43 % Ctrl. Besides, on kinases [7] (target KIT(D816V); 1 μM), the “% Ctrl, KIT(D816V)” value was determined as 6.8 % Ctrl. Besides, on kinases [8] (target KIT(V559D); 1 μM), the “% Ctrl, KIT(V559D)” value was 0.3 % Ctrl. On kinases [9] (target KIT(V559D, V654A); 1 μM), the “% Ctrl, KIT(V559D, V654A)” value turned out to be 13 % Ctrl. In addition, the “% Ctrl, FLT3(N841I)” value on kinases [10] (target FLT3(N841I); 1 μM) is recorded as 0 % Ctrl. Further, the “% Ctrl, ABL2” value on kinases [11] (target ABL2; 1 μM) is 35 % Ctrl.
As for `Cc1cc2c([nH]1)/C=C1\C(=O)Nc3cc(Cl)c(cc31)OCCO[C@@H](C(=O)N1CCN(C)CC1)CN(C)C2=O` [Ex. 138, [7R,16a(17)Z]-19-chloro-2,5-dimethyl-7-(4-methylpipearazine-1-carbonyl)-6,7,9,10-tetrahydro-1H-12,14-(ethanediylidene)dipyrrolo[3,2-i:3′,4′-l][1,4,7]dioxazacyclopentadecine-4,16(5H,15H)-dione], the “% Ctrl, ABL1(F317I)-nonphosphorylated” value at kinases [1] (setting [12]) was determined as 86 % Ctrl. The “% Ctrl, ABL1(F317I)-phosphorylated” value at kinases [1] (setting [13]) was found to be 100 % Ctrl. Further, the “% Ctrl, EGFR” value on kinases [2] (target EGFR; 1 μM) came to 76 % Ctrl. Besides, the “% Ctrl, EGFR(L861Q)” value at kinases [3] (target EGFR(L861Q); 1 μM) turned out to be 100 % Ctrl. Besides, the “% Ctrl, RET(V804L)” value on kinases [4] (target RET(V804L); 1 μM) is on record as 83 % Ctrl. Moreover, the “% Ctrl, KIT-autoinhibited” value on kinases [5] (target KIT-autoinhibited; 1 μM) came to 96 % Ctrl. The “% Ctrl, KIT” value on kinases [5] (target KIT; 1 μM) is reported as 90 % Ctrl. Further, the “% Ctrl, KIT(A829P)” value at kinases [6] (target KIT(A829P); 1 μM) came out at 100 % Ctrl. Further, the “% Ctrl, KIT(D816V)” value on kinases [7] (target KIT(D816V); 1 μM) was determined as 100 % Ctrl. The “% Ctrl, KIT(V559D)” value on kinases [8] (target KIT(V559D); 1 μM) came to 97 % Ctrl. In addition, on kinases [9] (target KIT(V559D, V654A); 1 μM), the “% Ctrl, KIT(V559D, V654A)” value is listed as 62 % Ctrl. Also, the “% Ctrl, FLT3(N841I)” value on kinases [10] (target FLT3(N841I); 1 μM) is listed as 68 % Ctrl. The “% Ctrl, ABL2” value on kinases [11] (target ABL2; 1 μM) was found to be 98 % Ctrl.
Turning to `Cc1cc2c([nH]1)/C=C1\C(=O)Nc3ccc(cc31)-c1cnn(C)c1OCCCN(C)C2=O` [Ex. 166, [3a(4)Z]-9,14-dimethyl-9,10,11,12-tetrahydro-14H-1,17-(ethanediylidene)pyrazolo[4,3-n]dipyrrolo[3,2-g:3′,4′-j][1,5]oxazacyclopentadecine-3,8(2H,5H)-dione], the “% Ctrl, ABL1(F317I)-nonphosphorylated” value on kinases [1] (1 μM; target ABL1(F317I)-nonphosphorylated) is reported as 80 % Ctrl. Also, the “% Ctrl, ABL1(F317I)-phosphorylated” value at kinases [1] (1 μM; target ABL1(F317I)-phosphorylated) amounted to 31 % Ctrl. The “% Ctrl, EGFR” value on kinases [2] (1 μM; target EGFR) was 70 % Ctrl. For the same compound, the “% Ctrl, EGFR(L861Q)” value at kinases [3] (1 μM; target EGFR(L861Q)) is 99 % Ctrl. In addition, at kinases [4] (1 μM; target RET(V804L)), the “% Ctrl, RET(V804L)” value came out at 0.3 % Ctrl. Moreover, the “% Ctrl, KIT” value at kinases [5] (1 μM; target KIT) was determined as 100 % Ctrl. In addition, the “% Ctrl, KIT-autoinhibited” value at kinases [5] (1 μM; target KIT-autoinhibited) is 87 % Ctrl. In addition, the “% Ctrl, KIT(A829P)” value on kinases [6] (1 μM; target KIT(A829P)) was determined as 28 % Ctrl. For the same compound, the “% Ctrl, KIT(D816V)” value at kinases [7] (1 μM; target KIT(D816V)) came to 2.8 % Ctrl. Also, the “% Ctrl, KIT(V559D)” value at kinases [8] (1 μM; target KIT(V559D)) was 54 % Ctrl. Also, on kinases [9] (1 μM; target KIT(V559D, V654A)), the “% Ctrl, KIT(V559D, V654A)” value came out at 43 % Ctrl. In addition, the “% Ctrl, FLT3(N841I)” value at kinases [10] (1 μM; target FLT3(N841I)) is on record as 0 % Ctrl. Besides, on kinases [11] (1 μM; target ABL2), the “% Ctrl, ABL2” value is 51 % Ctrl.
